We go through two compounds from ChEMBL document CHEMBL5291721, “A preclinical secondary pharmacology resource illuminates target-adverse drug reaction associations of marketed drugs” (Nat Commun, 2023).

The structures appear in SMILES notation.

Usually AC50 stands for the midpoint of the concentration-response curve, whichever way the signal moves. A higher AC50 goes with weaker potency.

The target in experiment [1] is T1, 5-hydroxytryptamine receptor 1A (Homo sapiens, UniProt P08908).
T1 sequence (P08908 whole entry): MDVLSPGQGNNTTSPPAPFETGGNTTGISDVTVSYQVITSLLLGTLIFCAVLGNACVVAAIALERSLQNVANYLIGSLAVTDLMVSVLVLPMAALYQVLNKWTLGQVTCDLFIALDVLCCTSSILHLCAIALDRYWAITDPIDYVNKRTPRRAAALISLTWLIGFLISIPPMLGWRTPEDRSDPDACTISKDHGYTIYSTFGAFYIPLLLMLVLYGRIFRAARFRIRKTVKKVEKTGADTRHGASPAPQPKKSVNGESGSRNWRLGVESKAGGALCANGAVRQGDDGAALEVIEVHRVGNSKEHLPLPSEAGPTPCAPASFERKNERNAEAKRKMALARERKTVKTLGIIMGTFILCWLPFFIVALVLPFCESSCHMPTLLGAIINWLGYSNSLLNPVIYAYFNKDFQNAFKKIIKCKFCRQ
In kind it is functional, cell-based.

The target of experiment [2] is T2, Alpha-2A adrenergic receptor (Homo sapiens, UniProt P08913).
T2 sequence (P08913 whole entry): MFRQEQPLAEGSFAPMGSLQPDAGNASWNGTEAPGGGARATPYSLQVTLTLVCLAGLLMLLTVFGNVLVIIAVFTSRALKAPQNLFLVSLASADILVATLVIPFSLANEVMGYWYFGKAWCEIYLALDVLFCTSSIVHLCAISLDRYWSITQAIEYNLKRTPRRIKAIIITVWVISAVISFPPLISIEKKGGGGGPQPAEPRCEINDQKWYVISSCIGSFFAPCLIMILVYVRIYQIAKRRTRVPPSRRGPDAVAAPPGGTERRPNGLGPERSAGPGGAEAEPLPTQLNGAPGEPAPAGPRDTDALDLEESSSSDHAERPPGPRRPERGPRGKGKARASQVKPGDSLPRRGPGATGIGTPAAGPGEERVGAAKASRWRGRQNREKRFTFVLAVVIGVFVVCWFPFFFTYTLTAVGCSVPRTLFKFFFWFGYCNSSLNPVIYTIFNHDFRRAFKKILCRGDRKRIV
In kind it is functional, cell-based.

For experiment [3], the target named is T3, 5-hydroxytryptamine receptor 2C (Homo sapiens, UniProt P28335).
T3 sequence (P28335 whole entry): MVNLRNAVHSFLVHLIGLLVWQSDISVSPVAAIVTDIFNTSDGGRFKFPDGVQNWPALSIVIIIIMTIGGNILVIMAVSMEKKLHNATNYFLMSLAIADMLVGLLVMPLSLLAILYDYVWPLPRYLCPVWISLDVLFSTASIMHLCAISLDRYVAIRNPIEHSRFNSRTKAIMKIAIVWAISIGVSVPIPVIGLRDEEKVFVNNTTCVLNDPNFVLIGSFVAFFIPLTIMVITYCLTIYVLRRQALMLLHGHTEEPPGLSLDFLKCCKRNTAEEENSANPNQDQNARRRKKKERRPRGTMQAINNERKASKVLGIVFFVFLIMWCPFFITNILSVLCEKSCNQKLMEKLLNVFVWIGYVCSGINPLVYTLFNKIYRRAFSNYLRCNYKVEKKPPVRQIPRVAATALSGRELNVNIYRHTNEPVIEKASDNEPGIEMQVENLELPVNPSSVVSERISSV

The next experiment addresses Histamine H1 receptor (Homo sapiens, UniProt P35367).
The target in experiment [4] is T4, Amine oxidase [flavin-containing] A (Homo sapiens, UniProt P21397).
T4 sequence (P21397 whole entry): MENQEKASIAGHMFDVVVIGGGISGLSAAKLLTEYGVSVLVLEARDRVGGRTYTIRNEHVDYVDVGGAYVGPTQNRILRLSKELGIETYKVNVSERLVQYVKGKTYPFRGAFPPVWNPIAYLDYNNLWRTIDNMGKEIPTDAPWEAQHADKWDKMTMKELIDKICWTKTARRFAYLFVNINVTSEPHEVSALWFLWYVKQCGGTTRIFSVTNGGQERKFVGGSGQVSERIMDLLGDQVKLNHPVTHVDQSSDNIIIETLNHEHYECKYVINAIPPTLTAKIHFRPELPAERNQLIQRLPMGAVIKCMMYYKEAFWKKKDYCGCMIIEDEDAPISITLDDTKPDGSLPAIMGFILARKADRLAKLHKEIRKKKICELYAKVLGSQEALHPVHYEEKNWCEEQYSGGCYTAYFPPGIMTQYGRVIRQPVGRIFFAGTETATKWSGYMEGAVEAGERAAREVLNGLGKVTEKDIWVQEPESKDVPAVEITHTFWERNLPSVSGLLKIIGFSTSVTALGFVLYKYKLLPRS
The experiment is classed as functional.

The target of the next experiment is Prothrombin (Homo sapiens, UniProt P00734). In kind it is functional.
Experiment [5] addresses 3',5'-cyclic-AMP phosphodiesterase 4A (Homo sapiens, UniProt P27815). The experiment is classed as functional.
For another experiment, the target named is T5, Thromboxane A2 receptor (Homo sapiens, UniProt P21731).
T5 sequence (P21731 whole entry): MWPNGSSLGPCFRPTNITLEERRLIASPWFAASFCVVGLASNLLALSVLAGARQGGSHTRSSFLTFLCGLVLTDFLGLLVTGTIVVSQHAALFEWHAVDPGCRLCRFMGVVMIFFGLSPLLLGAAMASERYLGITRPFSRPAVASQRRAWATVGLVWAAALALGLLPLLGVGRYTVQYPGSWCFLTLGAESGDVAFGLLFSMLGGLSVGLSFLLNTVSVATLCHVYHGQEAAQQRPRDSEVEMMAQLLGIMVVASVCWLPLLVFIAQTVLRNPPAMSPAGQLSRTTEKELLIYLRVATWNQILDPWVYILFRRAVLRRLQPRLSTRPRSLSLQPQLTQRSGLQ
The experiment is classed as functional, cell-based.

Experiment [6] deals with Vascular endothelial growth factor receptor 2 (Homo sapiens, UniProt P35968). The experiment is classed as functional.
Experiment [7] concerns the target T6, Muscarinic acetylcholine receptor M2 (Homo sapiens, UniProt P08172).
T6 sequence (P08172 whole entry): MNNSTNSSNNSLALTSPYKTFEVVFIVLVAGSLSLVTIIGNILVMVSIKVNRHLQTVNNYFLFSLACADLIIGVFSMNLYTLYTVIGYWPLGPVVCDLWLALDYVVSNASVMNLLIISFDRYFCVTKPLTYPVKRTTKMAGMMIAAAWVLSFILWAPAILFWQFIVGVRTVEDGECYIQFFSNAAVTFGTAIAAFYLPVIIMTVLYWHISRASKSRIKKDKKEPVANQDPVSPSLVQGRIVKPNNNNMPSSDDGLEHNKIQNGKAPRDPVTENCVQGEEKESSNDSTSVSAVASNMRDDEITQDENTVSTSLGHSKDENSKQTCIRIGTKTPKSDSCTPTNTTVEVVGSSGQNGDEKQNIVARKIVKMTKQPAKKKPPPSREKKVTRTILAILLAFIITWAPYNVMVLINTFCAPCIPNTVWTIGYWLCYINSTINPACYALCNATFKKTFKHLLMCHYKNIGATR
Further: assay procedure not described here.

Chain of Histamine H1 receptor (P35367 whole entry): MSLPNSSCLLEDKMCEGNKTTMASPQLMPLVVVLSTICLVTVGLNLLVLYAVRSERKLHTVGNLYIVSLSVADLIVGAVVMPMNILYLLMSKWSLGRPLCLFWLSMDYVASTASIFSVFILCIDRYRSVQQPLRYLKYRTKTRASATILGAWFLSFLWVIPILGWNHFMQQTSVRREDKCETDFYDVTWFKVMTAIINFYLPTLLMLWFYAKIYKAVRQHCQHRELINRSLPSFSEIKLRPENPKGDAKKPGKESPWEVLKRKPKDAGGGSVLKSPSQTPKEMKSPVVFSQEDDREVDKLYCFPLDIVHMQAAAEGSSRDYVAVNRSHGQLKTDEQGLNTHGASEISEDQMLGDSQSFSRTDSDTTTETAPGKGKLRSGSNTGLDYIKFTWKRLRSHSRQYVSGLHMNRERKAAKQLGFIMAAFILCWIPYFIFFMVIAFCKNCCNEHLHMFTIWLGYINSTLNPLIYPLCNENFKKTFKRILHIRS
Chain of 3',5'-cyclic-AMP phosphodiesterase 4A (P27815 whole entry): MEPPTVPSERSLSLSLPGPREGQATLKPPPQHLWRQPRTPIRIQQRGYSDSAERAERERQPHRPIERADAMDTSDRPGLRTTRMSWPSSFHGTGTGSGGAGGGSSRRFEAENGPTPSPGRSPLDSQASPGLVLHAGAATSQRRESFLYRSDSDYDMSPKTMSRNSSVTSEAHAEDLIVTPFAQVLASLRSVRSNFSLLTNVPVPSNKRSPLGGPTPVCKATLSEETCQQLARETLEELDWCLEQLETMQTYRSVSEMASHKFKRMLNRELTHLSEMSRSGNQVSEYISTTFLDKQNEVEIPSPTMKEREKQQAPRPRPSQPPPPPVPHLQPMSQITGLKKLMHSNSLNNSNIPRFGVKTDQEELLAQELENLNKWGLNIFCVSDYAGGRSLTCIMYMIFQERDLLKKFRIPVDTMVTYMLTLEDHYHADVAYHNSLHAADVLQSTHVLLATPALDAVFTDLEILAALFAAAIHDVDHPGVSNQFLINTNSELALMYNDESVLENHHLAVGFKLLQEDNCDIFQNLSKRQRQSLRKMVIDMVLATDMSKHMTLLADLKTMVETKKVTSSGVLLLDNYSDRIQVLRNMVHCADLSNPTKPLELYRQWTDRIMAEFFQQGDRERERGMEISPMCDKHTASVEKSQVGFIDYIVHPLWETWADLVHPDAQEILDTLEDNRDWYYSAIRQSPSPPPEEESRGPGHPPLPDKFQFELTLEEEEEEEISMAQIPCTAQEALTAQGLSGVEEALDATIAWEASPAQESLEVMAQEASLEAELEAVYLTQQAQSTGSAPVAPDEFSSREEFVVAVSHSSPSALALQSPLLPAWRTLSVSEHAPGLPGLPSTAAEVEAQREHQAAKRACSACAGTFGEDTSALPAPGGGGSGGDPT
Chain of Vascular endothelial growth factor receptor 2 (P35968 whole entry): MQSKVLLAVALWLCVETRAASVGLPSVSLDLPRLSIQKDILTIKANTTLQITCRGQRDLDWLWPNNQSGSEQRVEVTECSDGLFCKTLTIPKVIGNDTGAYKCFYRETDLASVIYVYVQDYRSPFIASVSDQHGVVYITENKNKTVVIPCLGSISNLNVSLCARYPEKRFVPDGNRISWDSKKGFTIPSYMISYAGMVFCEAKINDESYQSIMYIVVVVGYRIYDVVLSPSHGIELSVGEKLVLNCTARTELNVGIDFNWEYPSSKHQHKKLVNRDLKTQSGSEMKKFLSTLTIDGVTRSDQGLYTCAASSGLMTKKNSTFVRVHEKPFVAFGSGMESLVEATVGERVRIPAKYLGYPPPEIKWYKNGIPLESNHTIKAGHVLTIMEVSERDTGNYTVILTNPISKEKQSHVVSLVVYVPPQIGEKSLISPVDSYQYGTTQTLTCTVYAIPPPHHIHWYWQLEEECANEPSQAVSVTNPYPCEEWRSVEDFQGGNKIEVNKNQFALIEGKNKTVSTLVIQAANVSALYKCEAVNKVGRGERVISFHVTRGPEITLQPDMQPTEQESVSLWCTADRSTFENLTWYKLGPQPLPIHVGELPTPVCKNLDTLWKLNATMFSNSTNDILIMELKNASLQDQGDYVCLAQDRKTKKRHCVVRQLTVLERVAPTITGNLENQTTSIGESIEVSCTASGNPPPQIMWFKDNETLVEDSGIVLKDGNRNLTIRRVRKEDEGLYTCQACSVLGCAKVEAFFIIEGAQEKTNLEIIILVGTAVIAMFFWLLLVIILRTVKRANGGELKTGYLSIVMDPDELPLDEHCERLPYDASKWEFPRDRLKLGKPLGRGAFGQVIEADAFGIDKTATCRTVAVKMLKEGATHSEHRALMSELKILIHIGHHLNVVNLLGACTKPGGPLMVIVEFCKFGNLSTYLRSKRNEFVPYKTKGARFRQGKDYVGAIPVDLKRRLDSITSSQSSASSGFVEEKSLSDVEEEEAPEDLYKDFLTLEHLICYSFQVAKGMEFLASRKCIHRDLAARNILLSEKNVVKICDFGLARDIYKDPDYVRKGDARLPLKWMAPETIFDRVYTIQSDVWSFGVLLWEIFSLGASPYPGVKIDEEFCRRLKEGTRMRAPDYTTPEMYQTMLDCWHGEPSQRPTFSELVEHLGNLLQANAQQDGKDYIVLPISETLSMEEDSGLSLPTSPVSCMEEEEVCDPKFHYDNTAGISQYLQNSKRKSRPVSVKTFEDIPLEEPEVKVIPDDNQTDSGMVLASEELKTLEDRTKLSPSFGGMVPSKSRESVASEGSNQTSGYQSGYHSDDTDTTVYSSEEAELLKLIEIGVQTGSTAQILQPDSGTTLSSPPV

Regarding `CCN(CC)C(=O)C1(c2ccccc2)CC1CN` (stereo not given), the concentration at half-maximal activity (AC50) in [1] was more than 30 µM; in experiment [2], more than 30 µM; in [3], 590 nM; at Histamine H1 receptor, more than 30 µM.

Turning to `CN(C)C(=O)Oc1cccc([N+](C)(C)C)c1` [NEOSTIGMINE], the AC50 (in experiment [4]; on Prothrombin; in experiment [5]; on Thromboxane A2 receptor; in experiment [6]; in experiment [7]) was more than 30 µM in each case.
